Experimental data published in PubChem BioAssay (NCI).
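Where inhibition never reached the appropriate level, the endpoint shown equals the highest concentration tested. Otherwise, values were interpolated linearly from a five-concentration, 48-hour dose response in 96-well plates. GI50 marks 50% less growth. TGI denotes the concentration required for complete inhibition of growth.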

Key:
Assay in all cases: NCI anticancer screen, dose series, 48 h
HL-60(TB) leukemia = tested on: HL-60(TB) leukemia
OVCAR-5 ovarian = tested on: OVCAR-5 ovarian
M14 melanoma = tested on: M14 melanoma
SK-OV-3 ovarian = tested on: SK-OV-3 ovarian
SK-MEL-2 melanoma = tested on: SK-MEL-2 melanoma
MOLT-4 leukemia = tested on: MOLT-4 leukemia
SF-295 CNS = tested on: SF-295 CNS
K-562 leukemia = tested on: K-562 leukemia
SN12C renal = tested on: SN12C renal
CCRF-CEM leukemia = tested on: CCRF-CEM leukemia
SK-MEL-28 melanoma = tested on: SK-MEL-28 melanoma
RXF 393 renal = tested on: RXF 393 renal
SW-620 colon = tested on: SW-620 colon
HT29 colon = tested on: HT29 colon
SF-268 CNS = tested on: SF-268 CNS
LOX IMVI melanoma = tested on: LOX IMVI melanoma
MCF7 breast = tested on: MCF7 breast
CAKI-1 renal = tested on: CAKI-1 renal
SK-MEL-5 melanoma = tested on: SK-MEL-5 melanoma
ACHN renal = tested on: ACHN renal
IGROV1 ovarian = tested on: IGROV1 ovarian
A498 renal = tested on: A498 renal
MDA-MB-231 breast = tested on: MDA-MB-231 breast
A549 NSCLC = tested on: A549 NSCLC
RPMI-8226 leukemia = tested on: RPMI-8226 leukemia
SR leukemia = tested on: SR leukemia
NCI-H23 lung = tested on: NCI-H23 lung
UACC-257 melanoma = tested on: UACC-257 melanoma
U251 CNS = tested on: U251 CNS
NCI-H226 lung = tested on: NCI-H226 lung
HCT-15 colon = tested on: HCT-15 colon
HCC-2998 colon = tested on: HCC-2998 colon
NCI/ADR-RES ovarian = tested on: NCI/ADR-RES ovarian
COLO 205 colon = tested on: COLO 205 colon
HOP-62 NSCLC = tested on: HOP-62 NSCLC
KM12 colon = tested on: KM12 colon
T-47D breast = tested on: T-47D breast
PC-3 prostate = tested on: PC-3 prostate
SF-539 CNS = tested on: SF-539 CNS
BT-549 breast = tested on: BT-549 breast
NCI-H460 lung = tested on: NCI-H460 lung
SNB-75 CNS = tested on: SNB-75 CNS
SNB-19 CNS = tested on: SNB-19 CNS
UO-31 renal = tested on: UO-31 renal
HS 578T breast = tested on: HS 578T breast
HCT-116 colon = tested on: HCT-116 colon
786-0 renal = tested on: 786-0 renal
MALME-3M melanoma = tested on: MALME-3M melanoma
OVCAR-8 ovarian = tested on: OVCAR-8 ovarian
OVCAR-4 ovarian = tested on: OVCAR-4 ovarian
OVCAR-3 ovarian = tested on: OVCAR-3 ovarian
EKVX NSCLC = tested on: EKVX NSCLC
HOP-92 NSCLC = tested on: HOP-92 NSCLC
NCI-H522 lung = tested on: NCI-H522 lung
UACC-62 melanoma = tested on: UACC-62 melanoma

In the case of `Cc1cc(Nc2ncc3c(n2)N(C)C(=O)N(c2cc(NC(=O)c4cccc(C(F)(F)F)c4)ccc2C)C3)n(C)n1`, the GI50 (HL-60(TB) leukemia) was 0.0365 µM, the GI50 (OVCAR-5 ovarian) was 0.0539 µM and the GI50 (M14 melanoma) was under 0.01 µM. It also gave a TGI (M14 melanoma) of 0.096 µM, a GI50 (SK-OV-3 ovarian) of 0.022 µM and a TGI (SK-OV-3 ovarian) of 0.0701 µM. It also gave a GI50 (SK-MEL-2 melanoma) of 0.0245 µM, a TGI (SK-MEL-2 melanoma) of 0.0764 µM and a GI50 (MOLT-4 leukemia) of 0.135 µM. The TGI (MOLT-4 leukemia) was over 46.4 µM, the GI50 (SF-295 CNS) was 0.364 µM and the TGI (SF-295 CNS) was over 100 µM. The GI50 (K-562 leukemia) was under 0.01 µM, the TGI (K-562 leukemia) was over 46.4 µM and the GI50 (SN12C renal) was 0.0167 µM. The TGI (SN12C renal) was over 100 µM, the GI50 (CCRF-CEM leukemia) was 2.36 µM and the TGI (CCRF-CEM leukemia) was over 46.4 µM. For the same molecule, the GI50 (SK-MEL-28 melanoma) was 0.02 µM, the TGI (SK-MEL-28 melanoma) was 0.15 µM and the GI50 (RXF 393 renal) was 0.021 µM. It also gave a TGI (RXF 393 renal) of 0.171 µM, a GI50 (SW-620 colon) of 0.0539 µM and a TGI (SW-620 colon) of over 46.4 µM. It also gave a GI50 (HT29 colon) of 0.023 µM, a TGI (HT29 colon) of 0.0864 µM and a GI50 (SF-268 CNS) of 0.0291 µM. It also gave a TGI (SF-268 CNS) of over 100 µM, a GI50 (LOX IMVI melanoma) of 0.0131 µM and a TGI (LOX IMVI melanoma) of 0.0305 µM. For the same molecule, the GI50 (MCF7 breast) was 0.624 µM, the TGI (MCF7 breast) was over 46.4 µM and the GI50 (CAKI-1 renal) was 0.0182 µM. The TGI (CAKI-1 renal) was 0.0709 µM, the GI50 (SK-MEL-5 melanoma) was 0.283 µM and the TGI (SK-MEL-5 melanoma) was 7.87 µM. The GI50 (ACHN renal) was 0.0281 µM, the GI50 (IGROV1 ovarian) was under 0.01 µM and the TGI (IGROV1 ovarian) was 0.0524 µM. For the same molecule, the GI50 (A498 renal) was 0.0158 µM, the TGI (A498 renal) was 0.0458 µM and the GI50 (MDA-MB-231 breast) was 0.0255 µM. For the same molecule, the TGI (MDA-MB-231 breast) was 0.164 µM, the GI50 (A549 NSCLC) was 0.044 µM and the TGI (A549 NSCLC) was 0.417 µM. For the same molecule, the GI50 (RPMI-8226 leukemia) was 0.641 µM, the TGI (RPMI-8226 leukemia) was 18.6 µM and the GI50 (SR leukemia) was 0.0264 µM. It also gave a TGI (SR leukemia) of 1.21 µM, a GI50 (NCI-H23 lung) of 0.0733 µM and a TGI (NCI-H23 lung) of over 31.6 µM. The GI50 (UACC-257 melanoma) was 0.0197 µM, the TGI (UACC-257 melanoma) was 0.125 µM and the GI50 (U251 CNS) was 0.0317 µM. It also gave a TGI (U251 CNS) of over 31.6 µM, a GI50 (NCI-H226 lung) of 0.0387 µM and a TGI (NCI-H226 lung) of over 100 µM. For the same molecule, the GI50 (HCT-15 colon) was 0.196 µM, the TGI (HCT-15 colon) was over 46.4 µM and the GI50 (HCC-2998 colon) was 0.541 µM. It also gave a TGI (HCC-2998 colon) of over 46.4 µM, a GI50 (NCI/ADR-RES ovarian) of 0.97 µM and a TGI (NCI/ADR-RES ovarian) of over 31.6 µM. The GI50 (COLO 205 colon) was 0.019 µM, the TGI (COLO 205 colon) was 0.0368 µM and the GI50 (HOP-62 NSCLC) was 0.0769 µM. The TGI (HOP-62 NSCLC) was over 15.6 µM, the GI50 (KM12 colon) was 0.321 µM and the TGI (KM12 colon) was over 46.4 µM. For the same molecule, the GI50 (T-47D breast) was 0.0438 µM, the TGI (T-47D breast) was 2.24 µM and the GI50 (PC-3 prostate) was 0.105 µM. The TGI (PC-3 prostate) was over 31.6 µM, the GI50 (SF-539 CNS) was 0.0621 µM and the TGI (SF-539 CNS) was 0.68 µM. For the same molecule, the GI50 (BT-549 breast) was 0.0628 µM, the TGI (BT-549 breast) was 0.321 µM and the GI50 (NCI-H460 lung) was 0.0832 µM. The TGI (NCI-H460 lung) was over 46.4 µM, the GI50 (SNB-75 CNS) was 0.0217 µM and the TGI (SNB-75 CNS) was 0.0699 µM. It also gave a GI50 (SNB-19 CNS) of 0.234 µM, a TGI (SNB-19 CNS) of over 46.4 µM and a GI50 (UO-31 renal) of 0.0583 µM. It also gave a TGI (UO-31 renal) of 0.322 µM, a GI50 (HS 578T breast) of 0.0353 µM and a TGI (HS 578T breast) of 0.206 µM. The GI50 (HCT-116 colon) was 0.0333 µM, the TGI (HCT-116 colon) was 27.1 µM and the GI50 (786-0 renal) was 0.0599 µM. The TGI (786-0 renal) was over 46.4 µM, the GI50 (MALME-3M melanoma) was under 0.0124 µM and the TGI (MALME-3M melanoma) was 0.0489 µM.

In the case of `CC(C)(C)[Si](C)(C)OCC1OC(n2cc(I)c(=O)[nH]c2=O)C(O[Si](C)(C)C(C)(C)C)C1O[Si](C)(C)C(C)(C)C` (configuration not stated), the TGI (OVCAR-8 ovarian) was 29.1 µM, the TGI (OVCAR-4 ovarian) was over 100 µM and the TGI (OVCAR-5 ovarian) was 45.7 µM. It also gave a TGI (M14 melanoma) of 45.4 µM, a TGI (SK-OV-3 ovarian) of 75.4 µM and a TGI (MOLT-4 leukemia) of over 100 µM. It also gave a TGI (SF-295 CNS) of 36.8 µM, a TGI (SN12C renal) of over 100 µM and a TGI (OVCAR-3 ovarian) of 28 µM. For the same molecule, the TGI (EKVX NSCLC) was 45.6 µM, the TGI (SW-620 colon) was 41.4 µM and the TGI (HT29 colon) was 37 µM. The TGI (HOP-92 NSCLC) was 56.2 µM, the TGI (SF-268 CNS) was 43 µM and the TGI (LOX IMVI melanoma) was 35.2 µM. It also gave a TGI (MCF7 breast) of 29.4 µM, a TGI (SK-MEL-5 melanoma) of 31.4 µM and a TGI (ACHN renal) of 28.5 µM. The TGI (IGROV1 ovarian) was 38.1 µM, the TGI (MDA-MB-231 breast) was 37.4 µM and the TGI (NCI-H522 lung) was 25.2 µM. For the same molecule, the TGI (A549 NSCLC) was 26.1 µM, the TGI (SR leukemia) was over 100 µM and the TGI (UACC-257 melanoma) was 67.6 µM. For the same molecule, the TGI (NCI-H226 lung) was 48 µM, the TGI (HCT-15 colon) was over 100 µM and the TGI (NCI/ADR-RES ovarian) was over 100 µM. For the same molecule, the TGI (COLO 205 colon) was 53.7 µM, the TGI (UACC-62 melanoma) was 35.4 µM and the TGI (HOP-62 NSCLC) was 39.8 µM. It also gave a TGI (T-47D breast) of 47.6 µM, a TGI (PC-3 prostate) of 43.1 µM and a TGI (BT-549 breast) of 50.7 µM. The TGI (NCI-H460 lung) was 36.8 µM, the TGI (SNB-75 CNS) was 33 µM and the TGI (SNB-19 CNS) was 43.2 µM. For the same molecule, the TGI (UO-31 renal) was 50.2 µM, the TGI (HS 578T breast) was 57.2 µM and the TGI (MALME-3M melanoma) was over 100 µM.
